This note sets out measurements from article PMC10766610, “DCAF1-based PROTACs with activity against clinically validated targets overcoming intrinsic- and acquired-degrader resistance” (Nature Communications, 2024).

A word on the IC50: it is the concentration at which inhibition is half-maximal.

For experiment [1], the target named is T1, DCAF1(WDR) with additional 10 µM BRD9-BD(130-250) (Homo sapiens, UniProt Q9H8M2+Q9Y4B6, E1398S).
T1 construct: 2 nM human DCAF1(1073-1399)_E1398S-Avi-His; human BRD9-BD(130-250) in the cooperative assay; His6 (C); GST (PreScission site) (N, cleaved yes); made in house; host or cells: DCAF1: Sf9 with BirA; BRD9: E. coli Rosetta (pGEX6P1)
T1 sequence (Q9Y4B6 1073-1399 E1398S): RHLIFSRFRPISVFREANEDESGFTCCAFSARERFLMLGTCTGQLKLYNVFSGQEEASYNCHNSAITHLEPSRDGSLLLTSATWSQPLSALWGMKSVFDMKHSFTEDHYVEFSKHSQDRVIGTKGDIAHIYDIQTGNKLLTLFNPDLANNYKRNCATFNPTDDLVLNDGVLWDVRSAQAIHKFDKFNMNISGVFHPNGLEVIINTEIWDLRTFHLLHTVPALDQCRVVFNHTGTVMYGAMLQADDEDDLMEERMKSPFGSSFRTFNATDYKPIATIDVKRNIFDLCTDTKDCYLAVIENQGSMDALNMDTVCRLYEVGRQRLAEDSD
T1 sequence (Q9H8M2 130-250): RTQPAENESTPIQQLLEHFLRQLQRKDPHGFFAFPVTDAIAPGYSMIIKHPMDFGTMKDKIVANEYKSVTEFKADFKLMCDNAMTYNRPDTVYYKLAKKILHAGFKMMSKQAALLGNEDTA
Briefly: DCAF1 TR-FRET, cooperative format with 10 µM BRD9-BD(130-250). It is filed as binding. Particulars: read-out: TR-FRET Q. IC50 [μM], + BRD9. As for the experimental part:
Competition assay conditions consist of 20 µL total volume in white 384-well plates (Greiner), in 30 mM phosphate buffer pH 7.4 containing 140 mM NaCl, 0.01% Tween20, 1 mM TCEP and 1% final DMSO. Tested compounds at 14 different concentrations were pre-incubated at 22 °C for 30 min with a large excess of 10 µM human BTK (G389-S659) or 10 µM human BRD9-BD(130-250) in the cooperative assay or with buffer in standard binary assay. […] Samples were then incubated at 22 °C for 30 min before reading using a Tecan infinite M-1000 or PheraStar FSX (excitation 340 nm, emission 490 and 520 nm). DCAF1 protein was omitted in the negative control. IC50 fitting was carried out using an in-house developed software (Novartis Helios software application, unpublished, a publicly available alternative would be e.g., Graphpad Prism) using the methods described by Fomenko et al.[93] (regression algorithms for nonlinear dose-response curve fitting). Following normalization of activity values for the wells to % inhibition (% inhibition = [(high control-sample)/(high control-low control)] × 100). Data analysis could also be carried out using GraphPad Prism without prior normalization. The reported IC50 values are the average of at least two independent experiments.
Background: In TR-FRET formats the signal depends on donor and acceptor labels being close together.

In a further experiment the target is BTK (Homo sapiens, UniProt Q06187). The experiment is described as follows: Immunoblot of BTK in TMD8 WT and CRBN (CBt) resistant cells. It is filed as cell-based. Further details: performed with full-length BTK and endogenous DCAF1; expressed in transfected cells; host or cells: TMD8 cells, lentiviral, blasticidin-selected (TMD8 BTK-GFP/mCh). Particulars: 24 h; 0.1 µM CBt, 1 µM DBt-10. As for the experimental part:
(§1) Whole cell lysates for immunoblotting were prepared by pelleting cells at 4 °C (300 g) for 3 min. Cell pellets were then washed 1x with PBS and resuspended in RIPA lysis buffer (VWR, cat # 97063-270) supplemented with protease (Thermo Scientific, cat # A32955) and phosphatase (Thermo Scientific, cat # A32957) inhibitor tablets. Lysates were clarified at 16,000 × g for 15 min at 4 °C prior to quantification by Lowry assay (Bio-Rad cat # 5000113 and cat # 5000114). Whole-cell lysates were loaded into 4–20% Criterion TGX Precast 18 well gels (Bio-Rad, cat # 5671094) and separated by electrophoreses at 120 V for 1 h. The gels were transferred to a nitrocellulose membrane using the Trans-Blot Turbo (Bio-Rad) for 7 min and then blocked for 1 h at room temperature in Odyssey blocking buffer (LICOR Biosciences, cat # 927-50000). Membranes were probed with the appropriate primary antibodies (diluted 1:1000) overnight at 4 °C in 20% Odyssey blocking buffer in 1x TBST. Membranes were washed three times with 1x TBST (5 min per wash), and then incubated with IRDye goat anti-mouse (LICOR, cat # 926-32210) or goat anti-rabbit (LICOR, cat # 926-32211) secondary antibody diluted 1:10,000 in 20% Odyssey blocking buffer for 1 h at room temperature. After three 5-min washes with 1x TBST, the immunoblots were visualized using the ODYSSEY Infrared Imaging System (LICOR). […]
(A western blot detects proteins with antibodies after separation by electrophoresis.)

A further experiment has as its target T2, CSK (Homo sapiens, UniProt P41240).
T2 construct: host or cells: HEK293T
The experiment is described as follows: Immunoblot of CSK in HEK293T cells. It is filed as cell-based. The conditions noted are these: 6 h. As for the experimental part: as §1

T2 sequence (P41240 whole entry): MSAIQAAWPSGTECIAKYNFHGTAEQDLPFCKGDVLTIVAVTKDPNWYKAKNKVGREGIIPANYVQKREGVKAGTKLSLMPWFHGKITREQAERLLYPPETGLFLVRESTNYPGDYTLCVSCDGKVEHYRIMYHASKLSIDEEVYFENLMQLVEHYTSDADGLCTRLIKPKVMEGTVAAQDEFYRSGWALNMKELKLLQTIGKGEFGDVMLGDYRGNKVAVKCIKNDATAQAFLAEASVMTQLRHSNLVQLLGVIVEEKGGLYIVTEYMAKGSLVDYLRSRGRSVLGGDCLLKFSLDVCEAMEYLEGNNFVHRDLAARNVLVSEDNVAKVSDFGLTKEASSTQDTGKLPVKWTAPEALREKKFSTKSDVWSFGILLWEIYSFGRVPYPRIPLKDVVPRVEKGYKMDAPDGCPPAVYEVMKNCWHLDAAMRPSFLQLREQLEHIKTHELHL
Chain of BTK (Q06187 2-659 limits assumed): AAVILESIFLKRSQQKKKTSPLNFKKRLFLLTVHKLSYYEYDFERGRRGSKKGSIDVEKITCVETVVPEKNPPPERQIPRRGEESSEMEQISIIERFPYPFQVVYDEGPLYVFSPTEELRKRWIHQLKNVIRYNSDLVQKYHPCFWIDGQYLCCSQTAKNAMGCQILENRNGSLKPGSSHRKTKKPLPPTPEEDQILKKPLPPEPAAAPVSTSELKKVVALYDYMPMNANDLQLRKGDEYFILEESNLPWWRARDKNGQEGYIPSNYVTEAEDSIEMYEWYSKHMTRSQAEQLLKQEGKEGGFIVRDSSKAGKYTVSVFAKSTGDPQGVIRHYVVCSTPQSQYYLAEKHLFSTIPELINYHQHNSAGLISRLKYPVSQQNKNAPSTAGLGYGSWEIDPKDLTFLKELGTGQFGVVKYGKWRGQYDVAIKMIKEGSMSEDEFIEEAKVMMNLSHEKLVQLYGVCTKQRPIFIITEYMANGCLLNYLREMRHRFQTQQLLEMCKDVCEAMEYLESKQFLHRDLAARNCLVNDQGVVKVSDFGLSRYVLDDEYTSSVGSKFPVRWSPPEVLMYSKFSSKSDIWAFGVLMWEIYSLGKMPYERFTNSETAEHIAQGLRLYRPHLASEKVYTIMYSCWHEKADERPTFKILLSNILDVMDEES

Turning to `COc1cc(-c2cn(C)c(=O)c3cnccc23)c(OC)cc1CN1CCC(OCCCCCC(=O)N2CCN(c3ccc4c(NCCN)nc(C5(c6ccc(Cl)cc6)CCCCC5)nc4c3)CC2)CC1` [DBr-1], the IC50 in experiment [1] stood at 0.002 µM.

On to `Cc1c(NC(=O)N2CC(O)(CC(C)(C)C)C2)cc(F)cc1-c1ncnc2[nH]c(-c3cnn(CC(=O)N4CCC5(CC4)CN(CCNC(=O)CCCC(=O)N4CCN(c6ccc7c(NCCN)nc(C8(c9ccc(Cl)cc9)CCCCC8)nc7c6)CC4)CCO5)c3)cc12` [DBt-10], for which the “BTK degradation in TMD8 CBt sensitive (WT) vs resistant cells” value on BTK is “equipotent degradation of BTK”.

As for `Cc1nc(Nc2ncc(C(=O)Nc3c(C)cccc3Cl)s2)cc(N2CCC(OC3CCN(CCCCCCCC(=O)N4CCN(c5ccc6c(NCCN)nc(C7(c8ccc(Cl)cc8)CCCCC7)nc6c5)CC4)CC3)CC2)n1` [DDa-1], at CSK, the CSK protein levels result is given as “significant reduction in protein levels”.
